{"source": "patent US8691867B2", "about": "“Use of benzo-fused heterocycle sulfamide derivatives for the treatment of substance abuse and addiction” (Janssen Pharmaceutica NV, priority 2005, dated 2014)", "key": {"[1]": {"tested_on": "selectively-bred alcohol preferring rats", "assay": "Alcohol Preferring Rats In Vivo Model (two-bottle choice)", "set-up": "species or system rat", "conditions": "for 6 hr Ethanol (alcohol intake) / 6 hr Preference (alcohol preference): 6 h after administration; for 6 hr Ethanol (alcohol intake) / 6 hr Preference (alcohol preference) / 24 hr Ethanol (alcohol intake) / 24 hr Preference (alcohol preference): mean ± SEM; for 24 hr Ethanol (alcohol intake) / 24 hr Preference (alcohol preference): 24 h after administration", "description": "Adult male selectively-bred alcohol preferring rats (which are known in the art to be useful for the study of the effect of test compounds on vountary alcohol intake) were grouped into three groups: vehicle and Compound #8 (50 and 100 mg/kg, po). Rats were housed individually in wire mesh cages under a constant room temperature of 22±1° C. and 12:12 light-dark cycle (8:00-20:00, dark). The animals were fed Agway Prolab Rat/Mouse/ Hamster 3000 formula and water ad libitum.\nAlcohol intake was determined using the standard two-bottle choice method. Animals were first given free access to water in a graduated Richter tube for 2 days. Then they were given access to only a solution of 10% (v/v) ethanol for 3 consecutive days. During this period animals became accustomed to drinking from Richter tubes and to the taste and pharmacological effects of alcohol. Thereafter, they were given free access to both water and a solution of 10% alcohol for at least 4 consecutive weeks and throughout the study period. Rats had free access to food. Water and alcohol intake were recorded at 4, 6 and 24 hours after the treatment, whereas food intake was measured at 24 hour. Animals' body weight was measured every day.\nAfter establishment of a stable baseline for alcohol, food, and water intake, rats were administered either vehicle or Compound #8 via oral gavage using a cross-over design with random assignment. To be able to compare the efficacy of these compounds on alcohol intake with an established FDA-approved drug, naltrexone, was included as a positive control. Same rats were given an oral dose of naltrexone (20mg/kg). The interval between treatments was at least 3 days. Alcohol and water intake were recorded 4, 6 and 24 h after the drug administration and food intake was recorded at 24 hr. A total of 8-10 animals per group were used.\nThe results below are presented as means ±SEM. Alcohol intake (g/kg) was calculated by multiplying the volume of alcohol consumed in ml by 10% and 0.7893 (ethanol density)/body weight in kg. Alcohol preference, expressed as percentage, was calculated as follows: (volume of alcohol consumed in ml/total fluid intake in ml)×100 (Rezvani and Grady, 1994; Rezvani et al., 1997). Statistical differences between drug-treated and control groups were determined by using ANOVA and Turkey Student's t test for multiple comparison."}}}
{"smiles": "NS(=O)(=O)NCCC1COc2ccccc2O1", "note": "(stereo not drawn)", "values": [{"measurement": "melting point", "value": "101 to 103", "unit": "°C"}]}
{"smiles": "NS(=O)(=O)NC[C@H]1COc2cc(Cl)ccc2O1", "note": "[Compound #8, (2S)-(−)-N-(6-Chloro-2,3-dihydro-benzo[1,4]dioxin-2-ylmethyl)-sulfamide]", "values": [{"measurement": "6 hr Ethanol (alcohol intake)", "setting": "[1]; 50 mg/kg po", "value": "1.28 ± 0.25", "unit": "g/kg"}, {"measurement": "6 hr Preference (alcohol preference)", "setting": "[1]; 50 mg/kg po", "value": "67 ± 11", "unit": "%"}, {"measurement": "24 hr Ethanol (alcohol intake)", "setting": "[1]; 50 mg/kg po", "value": "4.79 ± 0.5", "unit": "g/kg"}, {"measurement": "24 hr Preference (alcohol preference)", "setting": "[1]; 50 mg/kg po", "value": "77 ± 7", "unit": "%"}, {"measurement": "6 hr Ethanol (alcohol intake)", "setting": "[1]; 100 mg/kg po", "value": "1.33 ± 0.17", "unit": "g/kg"}, {"measurement": "6 hr Preference (alcohol preference)", "setting": "[1]; 100 mg/kg po", "value": "75 ± 8", "unit": "%"}, {"measurement": "24 hr Ethanol (alcohol intake)", "setting": "[1]; 100 mg/kg po", "value": "4.35 ± 0.66", "unit": "g/kg"}, {"measurement": "24 hr Preference (alcohol preference)", "setting": "[1]; 100 mg/kg po", "value": "70 ± 9", "unit": "%"}, {"measurement": "effect on ethanol consumption", "setting": "[1]; alcohol-preferring rats, 6 h post-dosing, 50 and 100 mg/kg dose", "value": "decreased ethanol consumption"}]}
{"smiles": "NS(=O)(=O)NCC1CCc2ccccc2O1", "note": "(stereo not drawn)", "values": [{"measurement": "melting point", "value": "100 to 101", "unit": "°C"}]}
{"smiles": "NS(=O)(=O)NC[C@H]1COc2cc(Cl)c(Cl)cc2O1", "values": [{"measurement": "melting point", "value": "119 to 121", "unit": "°C"}]}
{"smiles": "CN(C)S(=O)(=O)NCC1COc2ccccc2O1", "note": "(racemic)", "values": [{"measurement": "melting point", "value": "76 to 78", "unit": "°C"}]}
{"smiles": "O=C1CC[C@@]2(O)[C@H]3Cc4ccc(O)c5c4[C@@]2(CCN3CC2CC2)[C@H]1O5", "note": "[Naltrexone, naltrexone, reference compound]", "values": [{"measurement": "6 hr Ethanol (alcohol intake)", "setting": "[1]; 20 mg/kg oral", "value": "0.77 ± 0.24", "unit": "g/kg"}, {"measurement": "6 hr Preference (alcohol preference)", "setting": "[1]; 20 mg/kg oral", "value": "64 ± 12", "unit": "%"}, {"measurement": "24 hr Ethanol (alcohol intake)", "setting": "[1]; 20 mg/kg oral", "value": "4.48 ± 0.57", "unit": "g/kg"}, {"measurement": "24 hr Preference (alcohol preference)", "setting": "[1]; 20 mg/kg oral", "value": "76 ± 9", "unit": "%"}]}
{"smiles": "CN(CC1COc2ccccc2O1)S(N)(=O)=O", "note": "(racemic)", "values": [{"measurement": "melting point", "value": "97 to 98", "unit": "°C"}]}
